Source: PubChem BioAssay (NCI)
“And” between values parts separate entries of the source, which are not always exact repeats. Equal entries are not always repeated.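 A five-concentration, 48-hour dose response in 96-well plates underlies each endpoint, interpolated linearly between surrounding concentrations. At the GI50, growth is halved. TGI: concentration producing complete growth inhibition.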

Legend:
Assay in all cases: NCI-60 cell line screen, 48 h
HOP-92 NSCLC = system: HOP-92 NSCLC
OVCAR-4 ovarian = system: OVCAR-4 ovarian
PC-3 prostate = system: PC-3 prostate
MOLT-4 leukemia = system: MOLT-4 leukemia
COLO 205 colon = system: COLO 205 colon
SK-MEL-2 melanoma = system: SK-MEL-2 melanoma
M14 melanoma = system: M14 melanoma
NCI-H23 lung = system: NCI-H23 lung
786-0 renal = system: 786-0 renal
K-562 leukemia = system: K-562 leukemia

Compound | GI50 (HOP-92 NSCLC) [nM] | TGI (HOP-92 NSCLC) [µM] | GI50 (OVCAR-4 ovarian) | TGI (OVCAR-4 ovarian) | GI50 (PC-3 prostate) | TGI (PC-3 prostate) | GI50 (MOLT-4 leukemia) [nM] | TGI (MOLT-4 leukemia) [µM] | GI50 (COLO 205 colon) | TGI (COLO 205 colon) | GI50 (SK-MEL-2 melanoma) [µM] | TGI (SK-MEL-2 melanoma) [µM] | GI50 (M14 melanoma) [nM] | TGI (M14 melanoma) [µM] | GI50 (NCI-H23 lung) [nM] | TGI (NCI-H23 lung) [µM] | GI50 (786-0 renal) [µM] | TGI (786-0 renal) [µM] | TGI (K-562 leukemia) [µM] | GI50 (K-562 leukemia) [nM]
CCC(=O)Nc1ccc2c(c1)CN1C(=O)c3ccccc3C1=N2 | > 100000 | > 100 | > 100000 nM | > 100 µM | > 100 µM | > 100 µM | > 100000 | > 100 | > 100000 nM | > 100 µM | > 100 | > 100 | > 100000 | > 100 | > 100000 | > 100 | > 100 | > 100 |  | 
C/C=C/C/C=C/CCC(=O)C1OC1C(N)=O (configuration not stated) |  | 29.4 |  | 23.8 µM |  | 28.7 µM |  | 51.7 |  | 33.5 µM |  | 32.5 |  | 29.2 |  | 28.2 |  | 25.8 | 36.8 | 
N#Cc1c(N)nc(N2CCOCC2)c(C#N)c1-c1cccc(O)c1 | 37600 | > 100 | 26500 nM | > 100 µM | 46.9 µM | > 100 µM | > 100000 | > 100 | 69300 nM | > 100 µM | > 100 | > 100 | > 100000 | > 100 | 54800 | > 100 | > 100 | > 100 | > 100 | > 100000
O=C1CN2CCC1C/C2=C\c1ccnc2c(Cl)cccc12 (configuration not stated) | 37000 | > 100 | 42500 nM | > 100 µM | 89 µM | > 100 µM | 44400 | > 100 | > 100000 nM | > 100 µM | > 100 | > 100 | > 100000 | > 100 | 57000 | > 100 | > 100 | > 100 | > 100 | 32200
COc1ccc(/C(Cl)=C(\C=O)c2cc(OC)c(OC)c(OC)c2)cc1OC |  | > 100 |  | > 100 µM |  | > 100 µM |  | > 100 |  | > 100 µM |  | > 90.5 |  | > 100 |  | > 100 |  | > 100 | > 100 | 
Cc1cc(Nc2ncc(Cl)c(Nc3ccccc3S(=O)(=O)C(C)C)n2)c(OC(C)C)cc1C1CCNCC1 | 346 | 1.55 | 2140 nM and 1150 nM | 7.61 µM and 2.46 µM | 1.42 µM and 0.793 µM | 2.92 µM and 2.07 µM | 1550 | 3.7 | 312 nM and 332 nM | 1.39 µM and 1.28 µM | 1.47 | 3.06 | 1370 | 2.9 | 1510 | 3.07 | 1.56 | 3.01 | 3.82 | 1390
O=C1NC(=O)[C@H]2C3C=CC([C@@H]12)[C@@H]1C(=O)NC(=O)[C@H]31 |  | > 100 |  |  |  | > 100 µM |  | > 100 |  | > 100 µM |  | > 100 |  | > 100 |  | > 100 |  | > 100 | > 100 | 
N#C/C(=C\c1ccc(Cl)cc1)n1nnc2cc(F)c(F)cc21 | 1070 | 2.56 | 1590 nM | 3.48 µM | 1.61 µM | 3.53 µM | 2650 | > 100 | 2180 nM | 4.83 µM | 2.03 | 4.83 | 1900 | 4.39 | 1730 | 3.71 | 1.69 | 3.28 | > 100 | 2190
CN1CCN(Cc2ccc(NC(=O)c3[nH]ncc3Nc3ccnc4ccsc34)cc2)CC1 | 3890 | 8.92 | 2320 nM | 7.47 µM | 3.25 µM | 20.2 µM | 2090 | 7.93 | 1420 nM | 8.32 µM | 3.86 | 14.7 | 3690 | 16.9 | 2030 | 6.64 | 3.84 | 13.6 | > 100 | 2470
C=C1C(=O)O[C@H]2[C@H]1CC/C(COC(=O)NCCc1c[nH]c3ccccc13)=C\CC[C@@]1(C)O[C@@H]21 | 1270 | 3.07 | 2960 nM | 13.1 µM | 3.05 µM | 13 µM | 1910 | 6.59 | 1360 nM | 3.09 µM | 5.53 | 20.1 | 1440 | 3.65 | 2280 | 6.81 | 1.17 | 2.81 | 10.4 | 503
CC1(C)CC2=NOS3=C2C(=NO3)C1c1ccccn1 (configuration not stated) |  | > 100 |  | > 100 µM |  | > 100 µM |  | 95.6 |  | 80.5 µM |  | > 100 |  | > 100 |  | > 100 |  | > 100 | 62.8 | 
Cn1c(Cc2ccccc2)nc2cc3ccccc3cc21 | 10700 | 34.6 | 70400 nM | > 100 µM | 18.8 µM | 59.6 µM | 32600 | > 100 | 37000 nM | > 100 µM | 40.7 | > 100 | 26400 | 64.3 | 43000 | > 100 | 26 | 65.1 | > 100 | 37400
COc1ccc(C(=O)c2ccc(OC)cc2OC)cc1 | 1840 | 53.9 | 6540 nM | > 100 µM | 4.38 µM | > 100 µM | 4900 | > 100 | 1650 nM | 3.51 µM | 2.89 | 12.2 | 2470 | > 100 | 3790 | > 100 | 5.32 | > 100 | > 100 | 935
C[C@@H](Oc1cc(-c2cnn(C3CC4(CCNCC4)C3)c2)cnc1N)c1c(F)ccc(Cl)c1Cl | 540 | 3.13 | 1790 nM | 6.53 µM | 0.758 µM | 5.79 µM | 1290 | 5.82 | 293 nM | 0.864 µM | 1.93 | 3.74 | 1150 | 2.61 | 1090 | 11.4 | 1.63 | 3.17 | 1.4 | 228
